Where two headings read alike, the source gives them in different places.
Assays:
[1] = system: D2 -receptors; experiment: D2-agonist activity (test not specified); settings: presynaptic dopaminergic receptors on sympathetic nerve terminals
Description: Otherwise speaking, the main locus of action is at the presynaptic dopaminergic receptors or sympathetic nerve terminals which may also be called "D2 -receptors." Activation of the D2 -receptors on the sympathetic nerve terminals inhibits the release of norepinephrine, thereby inhibiting the increases in cardiac rate and the peripheral vasoconstriction resulting from stimulation of the sympathetic nervous system. These are beneficial cardiovascular actions in those conditions involving excessive or inappropriate levels of sympathetic nervous system stimulation.

[2] = molecular target: T1, D2 -receptors (Oryctolagus cuniculus, UniProt G1T1Q0); experiment: perfused rabbit ear artery test for D2-agonist activity
T1 construct: perfused rabbit ear artery test; from tissue; host or cells: perfused rabbit ear artery (sympathetic nerve terminals)
Description: In the perfused rabbit ear artery test for D2 -agonist activity [J. P. Hieble et al., Arch.

T1 sequence (G1T1Q0 1-443): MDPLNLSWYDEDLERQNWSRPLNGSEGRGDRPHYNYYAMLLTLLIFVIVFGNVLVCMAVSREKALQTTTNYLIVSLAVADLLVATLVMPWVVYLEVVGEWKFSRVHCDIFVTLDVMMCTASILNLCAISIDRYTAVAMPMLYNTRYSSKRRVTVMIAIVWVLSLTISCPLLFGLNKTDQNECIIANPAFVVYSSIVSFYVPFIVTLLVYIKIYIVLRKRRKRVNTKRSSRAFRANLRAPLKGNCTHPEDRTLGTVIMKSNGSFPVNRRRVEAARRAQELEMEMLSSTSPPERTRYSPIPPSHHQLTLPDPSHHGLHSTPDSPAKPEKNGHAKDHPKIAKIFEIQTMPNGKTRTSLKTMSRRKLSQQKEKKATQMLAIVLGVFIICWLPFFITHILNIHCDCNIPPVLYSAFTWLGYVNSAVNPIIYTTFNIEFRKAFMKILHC

D2 -agonist activity (in words) [1]	EC50 ([2]; perfused rabbit ear artery, D2 -agonist activity, read-out: EC50)	Compound	EC50 [2]
peripheral D2 -agonists	~9 nM	CCCN(CCC)CCc1ccc(O)c2[nH]c(=O)[nH]c12 [7-[2-(N,N-di-n-propylamino)ethyl]-4-hydroxy-1,3-benzimidazol-2-one]	–
–	–	CCCN(CCC)CCc1ccc(O)c(O)c1 [N,N-di-n-propyldopamine, reference compound]	50 to 60 nM
